Test [1] relates to STZ-diabetic and NOD-diabetic mice. In words: Gastric emptying of phenol red-labeled liquid meal in diabetic mice. Format: in vivo, mouse. Conditions: for t½ for gastric emptying: 1 mg/kg intraperitoneal 20 minutes before; for gastric emptying (20% dextrose): NOD-diabetic and STZ-diabetic mice after 1 week of insulin treatment. On the procedure: Animals. Mice were allowed free access to food and water except when fasted, as indicated for experiments. Wild-type mice (C57BL/6) were purchased from The Jackson Laboratory (Bar Harbor, Me., USA). nNOS^−/− mice were obtained following targeted genomic deletion of nNOS (15) and have the genetic background of C57BL/6 mice (28). For STZ-induced diabetes, adult male mice (C57BL/6) were injected intraperitoneally with a single dose of STZ (200 mg/kg in 0.1 M sodium citrate) as described elsewhere (29), whereas control mice were injected with an equal volume of vehicle (sodium citrate). STZ-treated mice were used for experiments 8 weeks after STZ injection. […]; Boehringer Mannheim, Indianapolis, Ind., USA). The average serum glucose levels for wild-type animals and the STZ diabetic mice 8 weeks after injection were 99 mg/dL and 388 mg/dL, respectively (Table 1). Adult male nonobese diabetic (NOD/LtJ [NOD]) mice were obtained at 8-10 weeks of age (The Jackson Laboratory). Serum glucose levels were also monitored weekly with the Accu-Check monitor. NOD-prediabetic mice and NOD-diabetic mice had average serum glucose levels of 88 mg/dL and 232 mg/dL, respectively (Table 1). For the indicated experiments, NOD-prediabetic mice were sacrificed at 10 weeks of age after serum glucose levels were confirmed, whereas NOD-diabetic mice were sacrificed at 30-32 weeks of age after elevated serum glucose levels were confirmed.
(§1) Insulin treatment was given using LinBit, a sustained-release insulin implant (0.1 U/d/implant; LinShin Canada Inc., Toronto, Ontario, Canada). After brief anesthesia with diethyl echer, the insulin implant was quickly immersed in Betadine solution (McKesson, San Francisco, Calif., USA) and implanted subcutaneously with a 12-gauge needle. Serum glucose levels were monitored, and insulin-treated animals were used for experiments after 12 hours or 1 week of insulin therapy, as indicated. The serum glucose levels after 1 week of insulin treatment are shown (Table 1), as are the serum glucose levels after 12 hours of insulin treatment (see FIG. 2b).
As indicated, insulin-treated diabetic mice were treated with the nNOS inhibitor 7-nitroindazole (7-NI; Lancaster, Wyndham, N.H., USA) by two intraperitoneal injections (50 mg/kg) of a suspension in sesame oil (Sigma Chemical Co., St. Louis, Miss., USA) given 24 hours and 30 minutes before determination of gastric emptying. […] For all experiments, control animals were similarly injected with vehicle (either sesame oil or water).
Gastric emptying. Gastric emptying of liquids was determined as described previously (30). For any experiments using diabetic mice, serum glucose levels of all animals were confirmed immediately before monitoring gastric emptying. Adult mice were sedated briefly (<30 seconds) with diethyl ether. Mice fully recovered from sedation in less than 1 minute. During brief sedation, oral-gastric intubation was accomplished with a 21-gauge needle fitted with a thin plastic catheter (8 cm in length). Then, 0.2 mL of 1 mg/mL phenol red-labeled 20% dextrose (or other solution, if indicated) was instilled into the stomach. Mice were placed in clean, empty cages until the time of sacrifice. At the indicated time (0-120 minutes), mice were rapidly sacrificed by cervical dislocation and the stomach was excised. The duodenum was ligated, followed by transverse resection of the lower esophagus, and the stomach was removed from the body cavity. Excised stomachs were homogenized with a polytron (Brinkmann, Westbury, N.Y., USA) homogenizer in 3 mL of 95% ethyl alcohol. After centrifugation (40,000 g for 20 minutes), an aliquot of the supernatant was used to determine phenol red content. Standard curve was constructed and found to be linear over the range of 1-20 microgram of phenol red. Phenol red content was monitored at 410 nm, at which a single peak of absorbance was observed when extracted with ethanol. […]

The next test deals with pyloric sphincter muscle. The experiment in a line: Organ bath physiology: EFS-evoked NO-dependent NANC relaxation of ex vivo pylori. More on the design: species or system mouse.
Test [2] has as its system nNOS. The experiment in a line: Immunohistochemistry of nNOS protein expression in pyloric myenteric neurons. Format: in vivo, mouse. The following applies: NOD-diabetic and STZ-diabetic mice, insulin treatment (1 week). On the procedure:
as §1
Immunohistochemistry. For nondiabetic studies, wild-type animals or 10-week-old NOD-prediabetic animals were used. For diabetic studies, we used animals 8 weeks after STZ injection (STZ diabetic) or 30-week-old NOD mice (NOD-diabetic). Pylori or other tissues were dissected and immediately imbedded (Tissue-Tek OCT 4583; Sakura Finetek Inc., Torrence, Calif., USA) and placed in dry ice and allowed to freeze. Routine sections (10 micrometer) were cut using a cryostat (−19° C.; Leica Microm, Allendale, N.J., USA). For immunostaining, slides were fixed for 5 minutes in 4.0% paraformaldehyde, washed in PBS, and permeablized with 0.1% Triton X-100 in PBS. […]

Test [3] relates to nNOS. In words: Western blot analysis of nNOS protein expression in intestinal tissues. The following applies: NOD-diabetic mice, insulin treatment (1 week). Format: in vivo, mouse. Here is the method:
as §1
Western blot analysis. Mouse tissues were homogenized in ice-cold buffer containing 50 mM Tris (pH 7.4, 25° C.), 100 mM NaCl, 1 mM EGTA, and protease inhibitors (4 microgram/mL leupeptin, 2 microgram/mL antipain, 2 microgram/mL pepstatin, and 1 mM PMSF). After centrifugatin (1.5 minutes, 16,000 g), the supernatants were collected and protein content was determined (Coomassie protein assay; Pierce Chemical Co., Rockville, Ill., USA). Samples (50 microgram protein) were subjected to SDS-PAGE (4-12% gradient gel; Bis-tris NuPage; Novex, San Diego, Calif., USA) and then transferred to PVDF membranes (Immobilon-P; Millipore Corp., Bedford, Mass., USA). […]

Another test deals with nNOS mRNA. In words: In situ hybridization of nNOS mRNA in pyloric myenteric neurons. Format: in vivo, mouse. Conditions: NOD-diabetic and STZ-diabetic mice, insulin treatment (1 week). On the procedure: as §1
In situ hybridization. In situ hybridization for nNOS was performed as described previously (31,32).

The mark [4] stands for this setting: wild-type pylori precontracted with 0.1 micromolar SP, inhibitor 0.1 mM.

Entries after “also recorded” stand apart in the source; their conditions may differ. Like-named read-outs stand apart in the source and are kept apart here.

In the case of `CCCc1nn(C)c2c(=O)[nH]c(-c3cc(S(=O)(=O)N4CCN(C)CC4)ccc3OCC)nc12` [sildenafil, 5-[2-ethoxy-5-(4-methylpiperazin-1-ylsulphonyl)phenyl]-1-methyl-3-n-propyl-1,6-dihydro-7H-pyrazolo[4,3d]pyrimidin-7-one], the “effect on delayed gastric emptying” value in test [1] (STZ-diabetic and NOD-diabetic mice, sildenafil 1 mg/kg) is “reverses the delayed gastric emptying; also recorded: reveres delayed gastric emptying”. The entries for the “t½ for gastric emptying” value in test [1] (sildenafil-treated NOD-diabetic mice) and in test [1] (sildenafil-treated STZ-diabetic mice) were 36 min and 30 min, respectively.

For the molecule `O=[N+]([O-])c1cccc2cn[nH]c12` [Compound 7-NI, 7-nitroindazole], in test [1] (insulin-treated (1 week) STZ-diabetic and NOD-diabetic mice, 7-NI 50 mg/kg intraperitoneal, 24 hours and 30 minutes before), the “gastric emptying at 30 minutes” value is given as “reverses the restoration of normal gastric emptying; also recorded: delays gastric emptying”. In addition, the NANC relaxation entry in the test on pyloric sphincter muscle (pylori of insulin-treated diabetic mice, in the presence of 0.1 mM 7-NI) is reported as “completely blocked”. For the same molecule, the “EFS-evoked NANC relaxation” value in the test on pyloric sphincter muscle (setting [4]) was “blocked”.

Turning to insulin, the “nNOS protein expression in pyloric myenteric neurons” value in the test with nNOS [2] is given as “reverse the loss of nNOS expression; also recorded: near normal levels”. Moreover, the “gastric emptying (20% dextrose)” value in test [1] is listed as “restored to normal”; in test [1] (listed as Insulin), “reverses delayed gastric emptying”. Moreover, the “t½ of gastric emptying” value in test [1] (STZ-diabetic mice after insulin treatment for 12 hours (subcutaneous implant), sham STZ-diabetic 60, wild-type 36) came to 54 min. For the same molecule, the “EFS-evoked NANC relaxation” value in the test with pyloric sphincter muscle (pylori of NOD-diabetic mice after insulin treatment (1 week)) was “partially restores NANC relaxation”; in the test on pyloric sphincter muscle (pylori of STZ-diabetic mice after insulin treatment (1 week)) it was “restores NANC relaxation”. Further, the “nNOS protein expression (Western blot) in intestinal regions” value is “fully reversible” with nNOS [3] and “completely reverses the loss of nNOS protein” in the test on nNOS [3] (listed as Insulin). Besides, the “nNOS mRNA expression in pylori” value in the test on nNOS mRNA was “substantially restores”.

Regarding `NC(=NCCC[C@H](N)C(=O)O)N[N+](=O)[O-]` [L-NNA, N-nitro-[.-arginine], the “EFS-evoked NANC relaxation” value in the test on pyloric sphincter muscle (setting [4]) is given as “blocked”.

With retrodotoxin [TTX], the “EFS-evoked NANC relaxation” value in the test with pyloric sphincter muscle was “completely blocked”.

The record behind these values is US6774128B2, “Methods for prevention and treatment of gastrointestinal disorders” (Johns Hopkins University, priority 2000, dated 2004).
